Reference: patent US10597388B2, “Pyridazinone herbicides” (FMC CORPORATION, priority 2014, dated 2020)

Tests used:
Type in all cases: in vivo
kochia (Kochia scoparia) = assay: Test C greenhouse herbicide test, postemergence
How it was run: (§1)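 Test chemicals were applied postemergence to greenhouse plants at the 1- to 4-leaf stage (2–18 cm tall) growing in peat/vermiculite medium. After 13–15 d, injury was rated visually against untreated controls on a 0–100 scale (0 = no effect, 100 = complete control).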

[1] = tested on: oat, wild (wild oat, Avena fatua); assay: Test C greenhouse herbicide test, postemergence
How it was run: as §1

[2] = tested on: foxtail, giant (giant foxtail, Setaria faberii); assay: Test C greenhouse herbicide test, pre- and postemergence
How it was run: (§2)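 Preemergence: seeds sown in a loam soil–sand blend and sprayed with test chemicals in a non-phytotoxic solvent mixture containing surfactant. Postemergence: plants grown in peat-based medium and treated at 2 to 18 cm (1- to 4-leaf stage). After 13 to 15 d in a greenhouse, injury was visually rated 0–100 against controls.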

[3] = tested on: morningglory (Ipomoea coccinea); assay: as above
How it was run: as §2

[4] = tested on: blackgrass (Alopecurus myosuroides); assay: as above
How it was run: as §2

[5] = tested on: velvetleaf (Abutilon theophrasti); assay: as above
How it was run: as §2

[6] = tested on: lambsquarters (Chenopodium album); assay: as above
How it was run: as §2

[7] = tested on: wheat (winter wheat, Triticum aestivum); assay: as above
How it was run: as §2

[8] = tested on: waterhemp (common waterhemp, Amaranthus rudis); assay: as above
How it was run: as §2

[9] = tested on: oilseed rape (Brassica napus); assay: as above
How it was run: as §2

[10] = tested on: johnsongrass (Sorghum halepense); assay: as above
How it was run: as §2

[11] = tested on: nutsedge, yellow (yellow nutsedge, Cyperus esculentus); assay: as above
How it was run: as §2

[12] = tested on: crabgrass, large (large crabgrass, Digitaria sanguinalis); assay: as above
How it was run: as §2

[13] = tested on: barnyardgrass (Echinochloa crus-galli); assay: as above
How it was run: as §2

[14] = tested on: pigweed (Amaranthus retroflexus); assay: as above
How it was run: as §2

corn (Zea mays) = assay: as above
How it was run: as §2

[15] = Postemergence, 31 g ai/ha, scale 0 to 100 (0 no effect, 100 complete control)
[16] = Postemergence, 62 g ai/ha, 0 to 100 scale (0 no effect, 100 complete control)
[17] = Postemergence, 250 g ai/ha, scale 0 to 100, 0 is no effect, 100 is complete control
[18] = postemergence, 125 g ai/ha, scale 0 to 100, 0 no effect, 100 complete control
[19] = Preemergence, 31 g ai/ha, scale 0 to 100, 0 is no effect, 100 is complete control
[20] = Preemergence, 62 g ai/ha, scale 0 to 100, 0 is no effect, 100 is complete control
[21] = Preemergence, 125 g ai/ha, scale 0 to 100, 0 is no effect, 100 is complete control
[22] = Preemergence, 250 g ai/ha, scale 0 to 100 (0 no effect, 100 complete control)

CC(=O)Oc1c(C)nn(C)c(=O)c1-c1c([N+](=O)[O-])ccc2ccccc12 [Compound 164]
Plant response rating, Kochia (kochia (Kochia scoparia); [15]): 60
Kochia plant response rating (kochia (Kochia scoparia); [16]): 85
Plant response rating, Kochia (kochia (Kochia scoparia); [17]): 95
Kochia plant response rating (kochia (Kochia scoparia); [18]): 90
Plant response rating, Oat, Wild [1, 15]: 35
Oat, Wild plant response rating [1, 16]: 45
Plant response rating, Oat, Wild [1, 17]: 80
Oat, Wild plant response rating [1, 18]: 70
Plant response rating, Foxtail, Giant [2, 15]: 5
Foxtail, Giant plant response rating [2, 16]: 10
Plant response rating, Foxtail, Giant [2, 17]: 30
Foxtail, Giant plant response rating [2, 18]: 15
Plant response rating, Morningglory [3, 15]: 80
Morningglory plant response rating [3, 16]: 85
Plant response rating, Morningglory [3, 17]: 90
Morningglory plant response rating [3, 18]: 90
Plant response rating, Blackgrass [4, 15]: 5
Blackgrass plant response rating [4, 16]: 15
Plant response rating, Blackgrass [4, 17]: 45
Blackgrass plant response rating [4, 18]: 40
Plant response rating, Velvetleaf [5, 15]: 25
Velvetleaf plant response rating [5, 16]: 60
Plant response rating, Velvetleaf [5, 17]: 70
Velvetleaf plant response rating [5, 18]: 25
Plant response rating, Lambsquarters [6, 15]: 70
Lambsquarters plant response rating [6, 16]: 85
Plant response rating, Lambsquarters [6, 17]: 98
Lambsquarters plant response rating [6, 18]: 85
Plant response rating, Wheat [7, 15]: 5
Wheat plant response rating [7, 16]: 5
Plant response rating, Wheat [7, 17]: 20
Wheat plant response rating [7, 18]: 10
Plant response rating, Waterhemp [8, 15]: 60
Waterhemp plant response rating [8, 16]: 70
Plant response rating, Waterhemp [8, 17]: 75
Waterhemp plant response rating [8, 18]: 70
Plant response rating, Oilseed Rape [9, 15]: 0
Oilseed Rape plant response rating [9, 16]: 0
Plant response rating, Oilseed Rape [9, 17]: 0
Oilseed Rape plant response rating [9, 18]: 0
Plant response rating, Johnsongrass [10, 15]: 5
Johnsongrass plant response rating [10, 16]: 5
Plant response rating, Johnsongrass [10, 17]: 10
Johnsongrass plant response rating [10, 18]: 5
Plant response rating, Nutsedge, Yellow [11, 15]: 20
Nutsedge, Yellow plant response rating [11, 16]: 20
Plant response rating, Nutsedge, Yellow [11, 17]: 40
Nutsedge, Yellow plant response rating [11, 18]: 25
Plant response rating, Crabgrass, Large [12, 15]: 0
Crabgrass, Large plant response rating [12, 16]: 5
Plant response rating, Crabgrass, Large [12, 17]: 10
Crabgrass, Large plant response rating [12, 18]: 10
Plant response rating, Barnyardgrass [13, 15]: 10
Barnyardgrass plant response rating [13, 16]: 25
Plant response rating, Barnyardgrass [13, 17]: 35
Barnyardgrass plant response rating [13, 18]: 30
Plant response rating, Pigweed [14, 15]: 70
Pigweed plant response rating [14, 16]: 80
Plant response rating, Pigweed [14, 17]: 85
Pigweed plant response rating [14, 18]: 85
Plant response rating, Corn (corn (Zea mays); [15]): 0
Corn plant response rating (corn (Zea mays); [16]): 0
Plant response rating, Corn (corn (Zea mays); [17]): 5
Corn plant response rating (corn (Zea mays); [18]): 5

CSCC(=O)Oc1c(C)nn(C)c(=O)c1-c1cccc2ccccc12 [Compound 171]
Plant response rating, Kochia (kochia (Kochia scoparia); [15]): 95
Kochia plant response rating (kochia (Kochia scoparia); [16]): 95
Plant response rating, Kochia (kochia (Kochia scoparia); [17]): 98
Kochia plant response rating (kochia (Kochia scoparia); [18]): 98
Plant response rating, Oat, Wild [1, 15]: 65
Oat, Wild plant response rating [1, 16]: 90
Plant response rating, Oat, Wild [1, 17]: 95
Oat, Wild plant response rating [1, 18]: 90
Plant response rating, Foxtail, Giant [2, 15]: 10
Foxtail, Giant plant response rating [2, 16]: 25
Plant response rating, Foxtail, Giant [2, 17]: 75
Foxtail, Giant plant response rating [2, 18]: 50
Plant response rating, Morningglory [3, 15]: 90
Morningglory plant response rating [3, 16]: 100
Plant response rating, Morningglory [3, 17]: 100
Plant response rating, Morningglory [3, 19]: 85
Plant response rating, Morningglory [3, 20]: 90
Plant response rating, Morningglory [3, 21]: 95
Morningglory plant response rating [3, 22]: 98
Morningglory plant response rating [3, 18]: 100
Plant response rating, Blackgrass [4, 15]: 5
Blackgrass plant response rating [4, 16]: 30
Plant response rating, Blackgrass [4, 17]: 55
Plant response rating, Blackgrass [4, 19]: 30
Plant response rating, Blackgrass [4, 20]: 40
Plant response rating, Blackgrass [4, 21]: 45
Blackgrass plant response rating [4, 22]: 90
Blackgrass plant response rating [4, 18]: 40
Plant response rating, Velvetleaf [5, 15]: 35
Velvetleaf plant response rating [5, 16]: 70
Plant response rating, Velvetleaf [5, 17]: 100
Plant response rating, Velvetleaf [5, 19]: 70
Plant response rating, Velvetleaf [5, 20]: 90
Plant response rating, Velvetleaf [5, 21]: 95
Velvetleaf plant response rating [5, 18]: 100
Plant response rating, Lambsquarters [6, 15]: 90
Lambsquarters plant response rating [6, 16]: 95
Plant response rating, Lambsquarters [6, 17]: 100
Plant response rating, Lambsquarters [6, 19]: 98
Plant response rating, Lambsquarters [6, 20]: 95
Plant response rating, Lambsquarters [6, 21]: 95
Lambsquarters plant response rating [6, 22]: 100
Lambsquarters plant response rating [6, 18]: 98
Plant response rating, Wheat [7, 15]: 0
Wheat plant response rating [7, 16]: 15
Plant response rating, Wheat [7, 17]: 20
Plant response rating, Wheat [7, 19]: 0
Plant response rating, Wheat [7, 20]: 5
Plant response rating, Wheat [7, 21]: 45
Wheat plant response rating [7, 18]: 30
Plant response rating, Waterhemp [8, 15]: 75
Waterhemp plant response rating [8, 16]: 95
Plant response rating, Waterhemp [8, 17]: 100
Plant response rating, Waterhemp [8, 19]: 85
Plant response rating, Waterhemp [8, 20]: 95
Plant response rating, Waterhemp [8, 21]: 100
Waterhemp plant response rating [8, 18]: 98
Plant response rating, Oilseed Rape [9, 15]: 0
Oilseed Rape plant response rating [9, 16]: 0
Plant response rating, Oilseed Rape [9, 17]: 30
Plant response rating, Oilseed Rape [9, 19]: 0
Plant response rating, Oilseed Rape [9, 20]: 5
Plant response rating, Oilseed Rape [9, 21]: 50
Oilseed Rape plant response rating [9, 22]: 90
Oilseed Rape plant response rating [9, 18]: 0
Plant response rating, Johnsongrass [10, 15]: 5
Johnsongrass plant response rating [10, 16]: 5
Plant response rating, Johnsongrass [10, 17]: 20
Plant response rating, Johnsongrass [10, 19]: 0
Plant response rating, Johnsongrass [10, 20]: 5
Plant response rating, Johnsongrass [10, 21]: 10
Johnsongrass plant response rating [10, 22]: 35
Johnsongrass plant response rating [10, 18]: 15
Plant response rating, Nutsedge, Yellow [11, 15]: 50
Nutsedge, Yellow plant response rating [11, 16]: 75
Plant response rating, Nutsedge, Yellow [11, 19]: 45
Plant response rating, Nutsedge, Yellow [11, 20]: 55
Plant response rating, Nutsedge, Yellow [11, 21]: 70
Nutsedge, Yellow plant response rating [11, 22]: 90
Nutsedge, Yellow plant response rating [11, 18]: 75
Plant response rating, Crabgrass, Large [12, 15]: 5
Crabgrass, Large plant response rating [12, 16]: 20
Plant response rating, Crabgrass, Large [12, 17]: 55
Plant response rating, Crabgrass, Large [12, 19]: 0
Plant response rating, Crabgrass, Large [12, 20]: 45
Plant response rating, Crabgrass, Large [12, 21]: 60
Crabgrass, Large plant response rating [12, 22]: 80
Crabgrass, Large plant response rating [12, 18]: 40
Plant response rating, Barnyardgrass [13, 15]: 15
Barnyardgrass plant response rating [13, 16]: 35
Plant response rating, Barnyardgrass [13, 17]: 60
Plant response rating, Barnyardgrass [13, 19]: 5
Plant response rating, Barnyardgrass [13, 20]: 35
Plant response rating, Barnyardgrass [13, 21]: 75
Barnyardgrass plant response rating [13, 22]: 95
Barnyardgrass plant response rating [13, 18]: 40
Plant response rating, Pigweed [14, 15]: 60
Pigweed plant response rating [14, 16]: 80
Plant response rating, Pigweed [14, 17]: 100
Plant response rating, Pigweed [14, 19]: 70
Plant response rating, Pigweed [14, 20]: 60
Plant response rating, Pigweed [14, 21]: 100
Pigweed plant response rating [14, 22]: 100
Pigweed plant response rating [14, 18]: 90
Plant response rating, Corn (corn (Zea mays); [15]): 0
Corn plant response rating (corn (Zea mays); [16]): 0
Plant response rating, Corn (corn (Zea mays); [17]): 20
Plant response rating, Corn (corn (Zea mays); [19]): 0
Plant response rating, Corn (corn (Zea mays); [20]): 0
Plant response rating, Corn (corn (Zea mays); [21]): 0
Corn plant response rating (corn (Zea mays); [22]): 40
Corn plant response rating (corn (Zea mays); [18]): 10
